Active and inactive are the calls of the source.
Key:
[1] = biological target: Voltage-gated inwardly rectifying potassium channel KCNH2 (Homo sapiens, UniProt Q12809); conditions: Potency;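 further: confirmatory quantitative high-throughput screen measuring inhibition of hERG channel activity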
[2] = biological target: T1, Microphthalmia-associated transcription factor (Homo sapiens, UniProt O75030); assay: reducers of TRPM1 reporter luminescence, concentration series – cell-based, SK-MEL-5, cherry-picked, set 3, MITF inhibitor project, dose response (AID 493073); type: functional;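 further: SK-MEL-5 melanoma cells with luciferase driven by the MITF target TRPM1 promoter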
T1 sequence (O75030 whole entry): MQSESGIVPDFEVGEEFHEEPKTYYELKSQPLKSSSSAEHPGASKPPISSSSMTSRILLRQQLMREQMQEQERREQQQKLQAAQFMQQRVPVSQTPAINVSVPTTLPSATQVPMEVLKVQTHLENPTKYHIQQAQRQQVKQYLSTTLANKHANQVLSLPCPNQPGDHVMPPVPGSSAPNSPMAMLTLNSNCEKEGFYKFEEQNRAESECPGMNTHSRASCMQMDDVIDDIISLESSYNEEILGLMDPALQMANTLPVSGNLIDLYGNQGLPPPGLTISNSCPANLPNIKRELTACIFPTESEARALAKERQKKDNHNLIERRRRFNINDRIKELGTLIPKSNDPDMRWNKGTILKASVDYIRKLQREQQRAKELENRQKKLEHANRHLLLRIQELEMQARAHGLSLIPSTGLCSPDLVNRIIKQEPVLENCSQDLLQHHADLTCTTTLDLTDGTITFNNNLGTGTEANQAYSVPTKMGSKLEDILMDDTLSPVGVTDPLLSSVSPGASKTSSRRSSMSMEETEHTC

A-375 = assay: proliferation inhibition in MITF-low A375 cells – cell-based, cherry-pick samples, set 2, counter-screen for MITF modulator project, dose response (AID 540335); type: functional; conditions: Homo sapiens
HeLa = assay: ATP-based viability loss in HeLa cells – cell-based, CellTiter-Glo luminescence, cherry-pick samples, cytotoxicity control for MITF activator project, dose response (AID 540259); type: functional; conditions: Homo sapiens

Sequence of Voltage-gated inwardly rectifying potassium channel KCNH2 (Q12809 whole entry): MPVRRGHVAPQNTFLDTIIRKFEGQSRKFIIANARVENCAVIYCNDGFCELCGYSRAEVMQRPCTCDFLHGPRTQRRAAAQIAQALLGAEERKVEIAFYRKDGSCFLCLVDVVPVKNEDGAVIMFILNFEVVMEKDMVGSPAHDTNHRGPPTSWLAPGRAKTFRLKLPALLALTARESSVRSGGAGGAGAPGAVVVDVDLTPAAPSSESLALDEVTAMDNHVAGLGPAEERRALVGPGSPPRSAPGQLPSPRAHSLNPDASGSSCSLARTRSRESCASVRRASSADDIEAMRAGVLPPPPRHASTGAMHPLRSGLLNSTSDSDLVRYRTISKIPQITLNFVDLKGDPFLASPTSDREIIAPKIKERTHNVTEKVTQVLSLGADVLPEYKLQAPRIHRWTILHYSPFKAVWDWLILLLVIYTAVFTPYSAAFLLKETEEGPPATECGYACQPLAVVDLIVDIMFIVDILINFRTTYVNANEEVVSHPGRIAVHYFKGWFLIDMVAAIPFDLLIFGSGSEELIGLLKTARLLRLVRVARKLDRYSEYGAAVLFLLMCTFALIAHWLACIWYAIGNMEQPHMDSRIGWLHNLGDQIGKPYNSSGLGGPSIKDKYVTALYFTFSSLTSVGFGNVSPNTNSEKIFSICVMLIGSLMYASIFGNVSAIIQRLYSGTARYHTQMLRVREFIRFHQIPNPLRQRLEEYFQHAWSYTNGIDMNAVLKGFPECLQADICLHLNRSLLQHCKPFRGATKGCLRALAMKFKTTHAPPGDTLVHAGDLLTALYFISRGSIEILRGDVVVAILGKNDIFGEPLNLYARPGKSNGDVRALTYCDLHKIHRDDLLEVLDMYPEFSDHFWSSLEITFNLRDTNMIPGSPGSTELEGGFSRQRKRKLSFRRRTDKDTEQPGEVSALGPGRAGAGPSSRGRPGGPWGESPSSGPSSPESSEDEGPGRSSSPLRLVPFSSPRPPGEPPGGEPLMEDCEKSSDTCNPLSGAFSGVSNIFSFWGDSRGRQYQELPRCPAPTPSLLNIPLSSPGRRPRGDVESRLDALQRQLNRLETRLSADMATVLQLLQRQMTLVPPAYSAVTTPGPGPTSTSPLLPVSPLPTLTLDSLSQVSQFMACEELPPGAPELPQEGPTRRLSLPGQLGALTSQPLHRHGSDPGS

With `COc1cc(CC(C)N)c(OC)cc1I` (stereo not drawn) as the molecule, how does the AC50 [1] read?
The AC50 was 15.8 µM (inconclusive).

For `CCCCn1c(=N)n(CCOc2ccc(C)cc2)c2ccccc21`, which AC50 [2] is on record?
The AC50 was 11.3 µM (active).

And the AC50 (A-375)?
Its AC50 is 18.3 µM (active).

How did the AC50 [2] turn out when `Cc1ccccc1NC(=O)Cc1nc(COC(=O)c2ccc(S(C)(=O)=O)c([N+](=O)[O-])c2)cs1` was run?
Its AC50 is 12.8 µM (active).

And the AC50 (A-375)?
Its AC50 is 28.2 µM (active).

`COc1cccc(NC(=O)Nc2ccc3c(c2)nnn3C)c1` was tested. Which AC50 (HeLa) did it give?
Its AC50 is > 350 µM (inactive).

`N=C(N)SCCc1cccc(CCSC(=N)N)c1` was tested. Which AC50 [1] did it give?
Its AC50 is 20 µM (inconclusive).

`CC(c1ccccc1)c1nnc(NC(=O)Nc2ccccc2F)s1` (stereo not drawn) was tested. Which AC50 (HeLa) did it give?
Its AC50 is 52.5 µM (active).

From ChEMBL document CHEMBL1201862, “PubChem BioAssay data set” (2004)
